Assay results taken from the NIST ThermoML archive (doi:10.1007/s10765-009-0593-3).
Numbers after ± are expanded uncertainties.

Conditions: 101.33 kPa, Liquid; for speed of sound: Pulse-echo method

Row | mass density (288.15 K) [kg/m3] | speed of sound (288.15 K) [m/s] | mass density (293.15 K) [kg/m3] | speed of sound (293.15 K) [m/s] | mass density (298.15 K) [kg/m3] | speed of sound (298.15 K) [m/s] | mass density (303.15 K) [kg/m3] | speed of sound (303.15 K) [m/s] | mass density (308.15 K) [kg/m3] | speed of sound (308.15 K) [m/s] | Structure (SMILES)
1 | 924.348 ± 0.29 | 1306.3 ± 0.83 | 919.954 ± 0.29 | 1287.9 ± 0.83 | 915.522 ± 0.3 | 1269.9 ± 0.82 | 911.078 ± 0.31 | 1251.7 ± 0.82 | 906.642 ± 0.31 | 1234.1 ± 0.81 | CCCOCC(C)OCC(C)O (stereo not given) [1-(1-methyl-2-propoxyethoxy)-2-propanol]
2 | 766.115 ± 0.53 | 1289.2 ± 0.83 | 762.022 ± 0.53 | 1269.5 ± 0.82 | 757.784 ± 0.54 | 1246.7 ± 0.81 | 752.284 ± 0.55 | 1226.7 ± 0.81 | 748.17 ± 0.55 | 1207 ± 0.8 | CCCCNCCCC [dibutylamine]
3 | 781.336 ± 0.5 | 1285 ± 0.83 | 777.632 ± 0.51 | 1266.4 ± 0.82 | 773.913 ± 0.51 | 1247.6 ± 0.81 | 770.183 ± 0.52 | 1229 ± 0.81 | 766.44 ± 0.53 | 1210.4 ± 0.8 | CCCCN(CCCC)CCCC [tributylamine]
4 | 742.865 ± 0.56 | 1296.1 ± 0.83 | 738.096 ± 0.57 | 1273.6 ± 0.82 | 733.301 ± 0.58 | 1250 ± 0.82 | 728.477 ± 0.58 | 1228.9 ± 0.81 | 723.625 ± 0.59 | 1205.7 ± 0.8 | CCCCN [1-butanamine]
